Data reported in patent US11872210B2, “Thiol isomerases inhibitors and use thereof” (WESTERN NEW ENGLAND UNIVERSITY, priority 2017, dated 2024).

Experiments:
[1] = molecular target: T1, ERp57 (Homo sapiens, UniProt P30101); test: Insulin-based turbidometric assay of thiol isomerase inhibitory activity (ERp57); type: biochemical; settings: insulin turbidity assay, 6 point dose curve
T1 construct: purchased AbCam (Cambridge Mass.)
T1 sequence (P30101 25-505): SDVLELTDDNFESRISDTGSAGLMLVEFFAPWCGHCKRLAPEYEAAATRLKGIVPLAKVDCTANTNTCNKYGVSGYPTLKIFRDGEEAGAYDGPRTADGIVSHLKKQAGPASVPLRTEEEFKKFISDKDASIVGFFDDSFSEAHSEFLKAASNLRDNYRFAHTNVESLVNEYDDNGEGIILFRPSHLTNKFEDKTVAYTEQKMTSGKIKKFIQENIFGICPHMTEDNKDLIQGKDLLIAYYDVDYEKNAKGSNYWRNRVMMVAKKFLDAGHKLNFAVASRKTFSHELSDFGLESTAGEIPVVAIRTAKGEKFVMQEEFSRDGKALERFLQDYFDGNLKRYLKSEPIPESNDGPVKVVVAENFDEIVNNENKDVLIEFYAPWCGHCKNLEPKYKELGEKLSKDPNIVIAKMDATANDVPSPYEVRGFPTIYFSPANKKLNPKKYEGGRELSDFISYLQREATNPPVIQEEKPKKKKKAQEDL

[2] = molecular target: T2, thioredoxin (TRX) (Homo sapiens, UniProt P10599); test: Insulin-based turbidometric assay of thiol isomerase inhibitory activity (thioredoxin); type: biochemical; settings: insulin turbidity assay, 6 point dose curve
T2 construct: purchased AbCam (Cambridge Mass.)
T2 sequence (P10599 1-105): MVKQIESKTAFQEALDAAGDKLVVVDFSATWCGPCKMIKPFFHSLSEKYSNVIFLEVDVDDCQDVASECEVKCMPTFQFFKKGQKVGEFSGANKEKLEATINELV
Description: (§1) Recombinant thiol isomerases were purchased from AbCam (Cambridge Mass.), recombinant insulin (bovine), bacitracin, dithiothreitol (DTT) buffers and all other chemicals were purchased from Sigma Aldrich (St. Louis, Mo.; while 384 well clear bottom plates were purchased from Corning (Corning, N.Y.).
(§2) The catalytic reduction of insulin by thiol isomerases in the presence of DTT results in aggregation of insulin chains. The turbidity of insulin aggregation can be monitored spectrophotometrically at an optical density (OD) at 650 nm. This approach has been used by multiple groups to identify thiol isomerase inhibitors in either a kinetic or endpoint fashion. A final concentration of either 10 μg/mL PDI, 30 μg/mL ERp5, 10 μg/mL ERp72 or 10 μg/mL thioredoxin, 125 μM insulin and 2 mM ethylenediaminetetraacetic acid (EDTA) in 30 μL of 100 mM potassium phosphate buffer was added to each experimental well plate, while negative control wells lacked any thiol isomerase. Lead compounds were diluted in a 6 point dose curve and the turbidity of insulin aggregation was measured kinetically each minute for 75 minutes using a Spectramax M3 plate reader (Molecular Devices, Sunnyvale, Calif.) Specificity assay utilized the insulin turbidity assay as well.

[3] = Tail bleeding assay; type: in vivo, C57/BL6 mice; settings: infused to circulating concentration of 20 μM, 5 minutes prior to tail biopsy
Method: (§3) The effects of zafirlukast on thrombus formation in mice was determined following laser injury of cremaster muscle arterioles, and observed by intravital microscopy. Male C57/BL6 mouse platelets were labelled with DyLight 649-conjugated anti-GPIb antibody (0.2 μg/g body weight) and either vehicle or zafirlukast (ZFL) infused (at a volume required to achieve a circulating concentration of 20 μM). Following laser injury, images were recorded for 5 minutes. […] FIG. 6 illustrates the effects of ZFL on bleeding were determined by tail bleeding assay. Vehicle or ZFL (at a volume required to achieve a circulating concentration of 20 μM) were infused into the femoral veins of C57/BL6 mice, 5 minutes prior to tail biopsy. 0.5 cm of tail tip was excised and blood collected in phosphate-buffered saline (PBS), and time to cessation of bleeding was recorded. […] Graphs represent mean±SEM, n=10 per treatment, data analyzed by Student's T test, ***p<0.005.

[4] = system: HeLa cells; test: PrestoBlue cell proliferation assay, HeLa; type: cell-based
Method: Cells were plated at 6,000 cells/well in a 96-well plate and treated with the indicated concentration of zafirlukast 24 hours later. Cells were allowed to grow for an additional 24 hours before alterations in growth were measured by the PrestoBlue cell proliferation assay in triplicate. Fluorescence readings with an excitation at 570 nm and emission of 600 nm were collected and treated samples were converted to a percentage of the untreated controls. OVCar8 (human ovarian cancer cell line), HCT116 (human colon cancer), HeLa (cervical cancer cell line) and MDA-MB-231 (breast cancer cell line) cell lines were examined for their ability to inhibit cell proliferation. […] Table 1 illustrates the results of a cell proliferation assay testing zafirlukast against OVCar8 cells, HCT116 cells, HeLa cells and MDA-MB-231 cells.

[5] = system: thrombus formation; test: Thrombus formation in mice after laser injury of cremaster muscle arterioles (intravital microscopy); type: in vivo, C57/BL6 mouse; settings: infused to circulating concentration of 20 μM, 5 minutes
Method: as §3

[6] = molecular target: T3, ERp5 (Homo sapiens, UniProt Q15084); test: Insulin-based turbidometric assay of thiol isomerase inhibitory activity (ERp5); type: biochemical; settings: insulin turbidity assay, 6 point dose curve
T3 construct: purchased AbCam (Cambridge Mass.)
T3 sequence (Q15084 20-440): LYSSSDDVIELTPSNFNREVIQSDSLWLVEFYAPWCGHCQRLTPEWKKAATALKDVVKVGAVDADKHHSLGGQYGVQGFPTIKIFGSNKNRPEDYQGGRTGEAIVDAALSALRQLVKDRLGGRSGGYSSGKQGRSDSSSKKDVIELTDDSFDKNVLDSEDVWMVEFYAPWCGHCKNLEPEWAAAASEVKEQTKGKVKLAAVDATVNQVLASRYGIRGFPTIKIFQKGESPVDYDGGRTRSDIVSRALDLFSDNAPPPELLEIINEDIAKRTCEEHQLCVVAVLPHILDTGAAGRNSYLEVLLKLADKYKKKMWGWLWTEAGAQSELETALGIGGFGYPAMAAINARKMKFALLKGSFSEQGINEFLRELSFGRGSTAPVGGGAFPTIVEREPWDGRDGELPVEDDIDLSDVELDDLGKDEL
Description: as §1, §2

inhibitory range on ERp57 [1]: 30 to 300 µM
inhibitory range on TRX [2]: 10 to 300 µM
bleeding time (time to cessation of bleeding), in words [3]: no change in bleeding time
IC50 ([4]; Homo sapiens, cervical cancer, 24 hours treatment): 30 µM
inhibitory range on ERp5 [6]: 10 to 300 µM
SMILES: COc1cc(C(=O)NS(=O)(=O)c2ccccc2C)ccc1Cc1cn(C)c2ccc(NC(=O)OC3CCCC3)cc12 [zafirlukast, 4-(5-cyclopentyloxycarbonylamino-1-methylindol-3-ylmethyl)-3-methoxy-N-o-tolylsulfonylbenzamide]
sensitivity of cell proliferation (in words) ([4]; compared with OVCar8 and HCT116): less sensitive
thrombus size (maximum fluorescence intensity), in words [5]: reduction in thrombus size
